# Source: ChEMBL document CHEMBL3992546, “Discovery and optimization of benzimidazole derivatives as a novel chemotype of farnesoid X receptor (FXR) antagonists” (Bioorg Med Chem, 2017)
# Activity calls are given as the source filed them. The rule behind the calls is not given here.
# How the values were obtained:
# Bile acid receptor = target: T1, Bile acid receptor (Homo sapiens, UniProt Q96RI1); assay: Inhibition of GW4064-induced fluorecein-labeled SRC2-2 coactivator recruitment in GST-tagged FXR LBD (unknown origin) by Lanthascreen TR-FRET assay
# T1 sequence (Q96RI1 whole entry): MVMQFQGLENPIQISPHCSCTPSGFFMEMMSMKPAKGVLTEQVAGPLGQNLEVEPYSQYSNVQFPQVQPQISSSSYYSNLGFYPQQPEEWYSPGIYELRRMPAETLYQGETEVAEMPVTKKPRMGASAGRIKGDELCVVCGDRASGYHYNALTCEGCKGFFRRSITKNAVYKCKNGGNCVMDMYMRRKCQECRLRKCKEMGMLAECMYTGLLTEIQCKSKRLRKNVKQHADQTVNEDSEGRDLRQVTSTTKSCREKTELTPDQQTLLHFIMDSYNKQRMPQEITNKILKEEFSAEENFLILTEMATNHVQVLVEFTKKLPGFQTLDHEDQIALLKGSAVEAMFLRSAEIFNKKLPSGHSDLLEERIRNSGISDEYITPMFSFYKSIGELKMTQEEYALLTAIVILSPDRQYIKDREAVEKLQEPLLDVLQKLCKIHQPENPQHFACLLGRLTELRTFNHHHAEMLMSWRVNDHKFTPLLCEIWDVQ
# [1] = Antagonist activity at human FXRalpha expressed in human Hep3B cells assessed as inhibition of CDCA-induced FXR response element driven luciferase activity after 24 hrs; assay type: cell-based
# [2] = target: T2, Bile acid receptor (Homo sapiens) (UniProt Q96RI1); assay: Antagonist activity at FXR in human Hep3B cells assessed as inhibition of CDCA-induced SHP expression level at 0.2 to 5 uM after 24 hrs by RT-PCR method; assay type: cell-based
# T2 sequence (whole entry): T1 sequence (Q96RI1 whole entry)
# [3] = target: T2, Bile acid receptor (Homo sapiens); assay: Antagonist activity at FXR in human Hep3B cells assessed as inhibition of CDCA-induced decrease in CYP7A1 expression level at 0.2 to 5 uM after 24 hrs by RT-PCR method; assay type: cell-based
# [4] = target: T3, Retinoic acid receptor RXR-alpha (Homo sapiens) (UniProt P19793); assay: Antagonist activity at human RXRalpha expressed in human Hep3B cells assessed as inhibition of 9-cis-retinoic acid-induced RXR response element driven luciferase activity at 100 uM after 24 hrs; assay type: cell-based
# T3 sequence (whole entry): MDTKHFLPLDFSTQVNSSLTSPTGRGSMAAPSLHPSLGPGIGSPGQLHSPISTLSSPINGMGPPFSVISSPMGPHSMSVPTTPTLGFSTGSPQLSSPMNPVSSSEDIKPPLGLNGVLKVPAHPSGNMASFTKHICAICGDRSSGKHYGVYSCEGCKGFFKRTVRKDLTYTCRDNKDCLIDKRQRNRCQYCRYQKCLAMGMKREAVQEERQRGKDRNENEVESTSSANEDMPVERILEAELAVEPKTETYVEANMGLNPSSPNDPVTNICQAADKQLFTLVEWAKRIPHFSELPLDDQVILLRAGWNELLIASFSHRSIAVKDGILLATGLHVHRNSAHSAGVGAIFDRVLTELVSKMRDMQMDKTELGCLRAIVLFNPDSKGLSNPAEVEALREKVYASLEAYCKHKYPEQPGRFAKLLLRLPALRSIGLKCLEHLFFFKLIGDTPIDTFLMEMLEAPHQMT
# [5] = Homo sapiens, Hep3B, 24 h, read-out: IC50
Compound,IC50 (Bile acid receptor) [µM],"IC50 [1, 5] [µM]",other results
CC(C)C[C@@H](c1nc2ccc(C(=O)O)cc2n1C)N1C(=O)CN(c2ccc(OC3CCCCC3)cc2)C1=O,126,55.2,
Cc1ccc2nc([C@H](CC3CCCCC3)N3C(=O)CN(c4ccc(Oc5ccccc5)cc4)C3=O)n(C)c2c1,126,0.0012,inhibition [2]: Active; inhibition [3]: Active; inhibition [4]: inactive
Cn1c([C@H](Cc2ccccc2)N2C(=O)CN(c3ccc(Oc4ccccc4)cc3)C2=O)nc2ccc(C(=O)O)cc21,35.2,6.4,
CC(C)C[C@@H](c1nc2ccc(C(=O)O)cc2n1C)N1C(=O)CN(c2ccc(Oc3ccccc3)cc2)C1=O,43.4,5.6,
Cn1c([C@@H](Cc2ccccc2)N2C(=O)CN(c3ccc(Oc4ccccc4)cc3)C2=O)nc2ccc(C(=O)O)cc21,87.5,13.9,
CC(C)C[C@H](c1nc2ccc(C(=O)O)cc2n1C)N1C(=O)CN(c2ccc(Oc3ccccc3)cc2)C1=O,6.6 to 66.6,33.6,
CC(C)C[C@@H](c1nc2ccc(C(=O)O)cc2n1C)N1C(=O)N(c2ccc(Oc3ccccc3)cc2)C(C)(C)C1=O,105,24.4,
Cc1ccc2nc([C@H](CC(C)C)N3C(=O)CN(c4ccc(Oc5ccccc5)cc4)C3=O)n(C)c2c1,65.6,0.175,
Cn1c([C@@H](N2C(=O)CN(c3ccc(Oc4ccccc4)cc3)C2=O)C(C)(C)C)nc2ccc(C(=O)O)cc21,77.1,6.3,
CC(C)C[C@@H](c1nc2ccc(C(=O)O)cc2n1C)N1C(=O)CN(c2ccc(Oc3ccc(Cl)cc3)cc2)C1=O,2.56,4.1,
CC(C)C[C@@H](c1nc2cc(C(=O)O)ccc2n1C)N1C(=O)CN(c2ccc(Oc3ccccc3)cc2)C1=O,113,18.2,
CC(C)[C@@H](c1nc2ccc(C(=O)O)cc2n1C)N1C(=O)CN(c2ccc(Oc3ccccc3)cc2)C1=O,174,10.1,
CC(C)C[C@@H](c1nc2ccc(C(=O)O)cc2n1C)N1C(=O)CN(c2cccc(Oc3ccccc3)c2)C1=O,18.2,9.9,
CC(C)C[C@@H](c1nc2ccc(C(=O)O)cc2n1C)N1C(=O)CN(c2ccc(F)cc2)C1=O,399,,IC50 [1]: Not Active
CC[C@H](C)[C@@H](c1nc2ccc(C(=O)O)cc2n1C)N1C(=O)CN(c2ccc(Oc3ccccc3)cc2)C1=O,102,3.8,
CC(C)C[C@@H](c1nc2ccc(C(=O)O)cc2n1C)N1CC(=O)N(c2ccc(Oc3ccccc3)cc2)CC1=O,417,,IC50 [1]: Not Active
CC(C)C[C@@H](c1nc2ccc(C(=O)O)cc2n1C)N1CCN(c2ccc(Oc3ccccc3)cc2)C1=O,28.5,5.7,
CC[C@@H](c1nc2ccc(C(=O)O)cc2n1C)N1C(=O)CN(c2ccc(Oc3ccccc3)cc2)C1=O,209,24.8,
CC(C)[C@H](c1nc2ccc(C(=O)O)cc2n1C)N1C(=O)CN(c2ccc(Oc3ccccc3)cc2)C1=O,118,100,
CC(C)C[C@@H](c1nc2ccc(C(=O)O)cc2n1C)N1C(=O)CN(c2ccc(-c3ccccc3)cc2)C1=O,23.1,28.1,
COc1ccc(Oc2ccc(N3CC(=O)N([C@@H](CC(C)C)c4nc5ccc(C(=O)O)cc5n4C)C3=O)cc2)cc1,75.3,4.5,
Cn1c([C@H](CC2CCCCC2)N2C(=O)CN(c3ccc(Oc4ccccc4)cc3)C2=O)nc2ccc(C(=O)O)cc21,24.4,2,
C[C@@H](c1nc2ccc(C(=O)O)cc2n1C)N1C(=O)CN(c2ccc(Oc3ccccc3)cc2)C1=O,10.4,> 300,
C/C=C1\C(=O)C[C@H]2[C@@H]3CCC4=CC(=O)CC[C@]4(C)[C@H]3CC[C@]12C [GUGGULSTERONE],,2,
